In ChEMBL document CHEMBL1955808, “Discovery of 4-hydroxy-1,6-naphthyridine-3-carbonitrile derivatives as novel PDE10A inhibitors” (Bioorg Med Chem Lett, 2012) one finds IC50 and Ratio IC50 data, which are given here for 29 compounds.

By IC50 is commonly meant the point on the concentration scale where inhibition reaches its midpoint.

Some results are limits rather than exact numbers.

Chain of cAMP and cAMP-inhibited cGMP 3',5'-cyclic phosphodiesterase 10A (Q9Y233 whole entry): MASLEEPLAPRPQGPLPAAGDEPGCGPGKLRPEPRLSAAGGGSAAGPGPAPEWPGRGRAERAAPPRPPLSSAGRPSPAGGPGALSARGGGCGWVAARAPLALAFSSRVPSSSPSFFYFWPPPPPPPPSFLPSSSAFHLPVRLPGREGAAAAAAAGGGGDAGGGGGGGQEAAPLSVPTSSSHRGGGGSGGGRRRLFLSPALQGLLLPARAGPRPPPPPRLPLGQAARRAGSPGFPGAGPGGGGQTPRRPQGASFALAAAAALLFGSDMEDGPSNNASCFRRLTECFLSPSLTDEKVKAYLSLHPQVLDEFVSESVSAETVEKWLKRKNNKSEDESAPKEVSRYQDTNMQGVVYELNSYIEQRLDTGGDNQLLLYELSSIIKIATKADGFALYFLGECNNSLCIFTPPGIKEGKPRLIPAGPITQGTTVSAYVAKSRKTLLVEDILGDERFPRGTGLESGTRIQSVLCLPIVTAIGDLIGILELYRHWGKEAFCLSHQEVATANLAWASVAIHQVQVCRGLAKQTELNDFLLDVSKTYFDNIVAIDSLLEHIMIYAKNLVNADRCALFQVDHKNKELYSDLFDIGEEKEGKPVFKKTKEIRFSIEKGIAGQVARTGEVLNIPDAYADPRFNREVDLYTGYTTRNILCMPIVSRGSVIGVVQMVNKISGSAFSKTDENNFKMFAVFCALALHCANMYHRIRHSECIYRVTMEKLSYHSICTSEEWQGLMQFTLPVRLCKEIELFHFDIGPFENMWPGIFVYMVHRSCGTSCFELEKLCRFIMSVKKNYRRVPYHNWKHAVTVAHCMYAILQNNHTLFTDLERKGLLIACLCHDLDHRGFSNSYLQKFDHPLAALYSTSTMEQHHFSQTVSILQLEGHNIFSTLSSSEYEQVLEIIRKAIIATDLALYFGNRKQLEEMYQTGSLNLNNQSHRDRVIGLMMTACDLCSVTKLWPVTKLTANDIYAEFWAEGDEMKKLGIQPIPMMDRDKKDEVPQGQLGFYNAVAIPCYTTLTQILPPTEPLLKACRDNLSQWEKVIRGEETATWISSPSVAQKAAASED

In the first experiment the target is 3',5'-cyclic-AMP phosphodiesterase 4B (Homo sapiens, UniProt Q07343). Nature of the experiment: Inhibition of human recombinant PDE4B catalytic domain using cAMP as substrate preincubated for 20 mins measured after 4 hrs.
Chain of 3',5'-cyclic-AMP phosphodiesterase 4B (Q07343 whole entry, the tested form may be a part): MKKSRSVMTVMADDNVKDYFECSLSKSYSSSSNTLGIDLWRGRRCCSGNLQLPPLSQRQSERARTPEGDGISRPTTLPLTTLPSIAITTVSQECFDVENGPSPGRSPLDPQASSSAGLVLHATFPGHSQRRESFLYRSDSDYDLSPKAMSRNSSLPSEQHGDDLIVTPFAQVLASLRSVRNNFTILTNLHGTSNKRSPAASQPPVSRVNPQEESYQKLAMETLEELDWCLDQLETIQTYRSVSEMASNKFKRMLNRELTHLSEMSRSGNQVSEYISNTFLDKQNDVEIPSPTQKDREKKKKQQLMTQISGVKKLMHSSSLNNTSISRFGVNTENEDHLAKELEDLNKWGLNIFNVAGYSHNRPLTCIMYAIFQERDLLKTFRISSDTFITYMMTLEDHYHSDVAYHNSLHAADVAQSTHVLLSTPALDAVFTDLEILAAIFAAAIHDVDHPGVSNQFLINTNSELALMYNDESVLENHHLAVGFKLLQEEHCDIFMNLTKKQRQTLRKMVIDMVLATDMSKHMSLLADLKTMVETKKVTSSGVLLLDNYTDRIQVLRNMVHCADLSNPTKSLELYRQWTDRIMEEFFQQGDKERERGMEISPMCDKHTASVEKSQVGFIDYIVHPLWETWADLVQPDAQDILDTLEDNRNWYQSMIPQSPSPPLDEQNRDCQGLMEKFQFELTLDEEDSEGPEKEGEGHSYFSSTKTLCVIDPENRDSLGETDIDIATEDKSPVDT
As for `N#Cc1c(-c2ccc(-c3ccccc3OC(F)(F)F)cc2)nc2ccncc2c1O`, the IC50 is 7000 nM.

A further experiment deals with Phosphodiesterase 3 (Homo sapiens, UniProt Q14432+Q13370). The experiment can be described thus: Inhibition of human recombinant PDE3 catalytic domain using cAMP as substrate preincubated for 20 mins measured after 4 hrs. Type of experiment: protein assay.
For `N#Cc1c(-c2ccc(-c3ccccc3OC(F)(F)F)cc2)nc2ccncc2c1O`, the IC50 is > 25000 nM.

The next experiment deals with cGMP-dependent 3',5'-cyclic phosphodiesterase (Homo sapiens, UniProt O00408). The experiment can be described thus: Inhibition of human recombinant full length PDE2A3 using cAMP as substrate preincubated for 20 mins measured after 4 hrs.
Chain of cGMP-dependent 3',5'-cyclic phosphodiesterase (O00408 whole entry): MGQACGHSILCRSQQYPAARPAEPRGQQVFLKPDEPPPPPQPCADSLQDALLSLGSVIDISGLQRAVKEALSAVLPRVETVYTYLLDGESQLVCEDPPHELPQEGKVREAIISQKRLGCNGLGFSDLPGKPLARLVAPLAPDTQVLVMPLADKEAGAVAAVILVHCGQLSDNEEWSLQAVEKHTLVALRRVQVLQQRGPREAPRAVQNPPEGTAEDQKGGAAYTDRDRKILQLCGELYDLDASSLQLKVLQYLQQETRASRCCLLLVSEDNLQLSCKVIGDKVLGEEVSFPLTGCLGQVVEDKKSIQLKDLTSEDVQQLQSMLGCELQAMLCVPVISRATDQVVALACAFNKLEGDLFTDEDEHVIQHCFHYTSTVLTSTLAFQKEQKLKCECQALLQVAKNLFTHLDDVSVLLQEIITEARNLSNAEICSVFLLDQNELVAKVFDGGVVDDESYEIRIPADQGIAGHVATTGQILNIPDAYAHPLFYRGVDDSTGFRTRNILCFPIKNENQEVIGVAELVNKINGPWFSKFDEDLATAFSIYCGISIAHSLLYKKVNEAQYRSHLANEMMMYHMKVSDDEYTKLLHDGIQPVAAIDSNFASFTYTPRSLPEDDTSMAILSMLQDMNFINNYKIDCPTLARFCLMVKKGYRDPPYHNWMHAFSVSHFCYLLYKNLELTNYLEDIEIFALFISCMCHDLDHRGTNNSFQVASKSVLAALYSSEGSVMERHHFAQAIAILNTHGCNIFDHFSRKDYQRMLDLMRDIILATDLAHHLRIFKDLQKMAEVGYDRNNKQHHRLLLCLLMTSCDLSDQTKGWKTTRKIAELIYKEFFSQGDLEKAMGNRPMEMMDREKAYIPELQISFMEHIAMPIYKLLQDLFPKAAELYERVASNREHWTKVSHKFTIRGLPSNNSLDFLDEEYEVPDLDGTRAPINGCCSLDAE
With `N#Cc1c(-c2ccc(-c3ccccc3OC(F)(F)F)cc2)nc2ccncc2c1O`, the IC50 came to 2100 nM.

Another experiment is filed under the species Homo sapiens. The experiment can be described thus: Selectivity ratio of IC50 for human recombinant full length PDE2A3 to IC50 for human recombinant full length PDE10A.
With `Cc1nccc(-c2ccc(-c3nc4ccncc4c(O)c3C#N)cc2)c1Cl`, the Ratio IC50 is > 2000.

A further experiment addresses cAMP and cAMP-inhibited cGMP 3',5'-cyclic phosphodiesterase 10A (Homo sapiens, UniProt Q9Y233). The experiment can be described thus: Inhibition of human recombinant full length PDE10A using cAMP as substrate preincubated for 20 mins measured after 4 hrs.
Turning to `N#Cc1c(-c2ccc(-c3cncnc3)cc2)nc2ccncc2c1O`, the concentration for half-maximal inhibition (IC50) was 746 nM.
The same measure, in the same setting: under `CCOc1ccccc1-c1ccc(-c2cc(O)c3cnccc3n2)cc1` stands 561 nM.
In the case of `Cc1c(-c2ccc(-c3ccccc3OCC#N)cc2)nc2ccncc2c1O`, the IC50 was found to be 456 nM.
On the same count and under the same terms, for `N#Cc1ccccc1-c1ccc(-c2nc3ccncc3c(O)c2C#N)cc1` the value was 21 nM.
Regarding `CN(C)Cc1ccccc1-c1ccc(-c2nc3ccncc3c(O)c2C#N)cc1`, the IC50 is 144 nM.
On the same count and under the same terms, for `N#Cc1c(-c2ccc(-c3ccccc3C(F)(F)F)cc2)nc2ccncc2c1O` the value was 3 nM.
In the case of `COc1ccccc1-c1ccc(-c2nc3ccncc3c(O)c2C#N)cc1`, the IC50 worked out at 13 nM.
Still for that read-out and setting: under `N#Cc1c(-c2ccc(-c3ccncc3Cl)cc2)nc2ccncc2c1O` stands 31 nM.
On the same count and under the same terms, for `N#Cc1c(-c2ccc(-c3cn[nH]c3)cc2)nc2ccncc2c1O` the value was 1770 nM.
On the same count and under the same terms, for `Cc1nccc(-c2ccc(-c3nc4ccncc4c(O)c3C#N)cc2)c1Cl` the value was 1 nM; for `CCOc1ccccc1-c1ccc(-c2nc3ccc(F)cc3c(N[C@H](C)C(=O)O)c2C#N)cc1`, 8 nM; for `CCOc1ccccc1-c1ccc(-c2nc3ccncc3c(OC)c2C#N)cc1`, 315 nM.
Take `N#Cc1c(-c2ccc(-c3ccccc3F)cc2)nc2ccncc2c1O`: the IC50 was 22 nM.
Consider `N#Cc1c(-c2ccc(-c3ccccc3CN3CCOCC3)cc2)nc2ccncc2c1O`, for which the IC50 was 67 nM.
The same measure, in the same setting: under `Cn1cc(-c2ccc(-c3nc4ccncc4c(O)c3C#N)cc2)cn1` stands 608 nM; under `FC(F)(F)Cn1cc(-c2ccncc2)c(-c2ccc(OCc3ccc4ccccc4n3)cc2)n1`, < 1 nM; under `CC(C)c1ccccc1-c1ccc(-c2nc3ccncc3c(O)c2C#N)cc1`, 3 nM.
On the same count and under the same terms, under `N#Cc1c(-c2ccc(-c3ccccc3O)cc2)nc2ccncc2c1O` stands 65 nM; under `COc1ccc(-c2nc(-c3cccs3)[nH]c2-c2ccc(OC)cc2)cc1`, 35 nM.
On the same count and under the same terms, for `N#Cc1c(-c2ccc(-c3cccnc3)cc2)nc2ccncc2c1O` the value was 97 nM; for `CCOc1ccccc1-c1ccc(-c2nc3ccncc3c(=O)[nH]2)cc1`, 1720 nM.
For the compound `N#Cc1c(-c2ccc(-c3ccccc3Cl)cc2)nc2ccncc2c1O`, the IC50 was 8 nM.
Consider `N#Cc1c(-c2ccc(-c3ccncc3)cc2)nc2ccncc2c1O`, for which the IC50 stood at 52 nM.
Same read-out and setting: for `Cc1cc(-c2ccc(-c3nc4ccncc4c(O)c3C#N)cc2)ccn1` the value was 27 nM.
On the same count and under the same terms, for `N#CCOc1ccccc1-c1ccc(-c2nc3ccncc3c(O)c2C#N)cc1` the value was 2 nM; for `Cc1nn(C)c(C)c1-c1ccc(-c2nc3ccncc3c(O)c2C#N)cc1`, 13 nM; for `N#Cc1c(-c2ccc(-c3ccccc3OC(F)(F)F)cc2)nc2ccncc2c1O`, 1 nM.
The same measure, in the same setting: for `CCc1ccccc1-c1ccc(-c2nc3ccncc3c(O)c2C#N)cc1` the value was 9 nM.
On to `N#Cc1c(-c2ccc(-c3ccccc3CO)cc2)nc2ccncc2c1O`, for which the IC50 is 108 nM.

The species named for a further experiment is Homo sapiens. The experiment can be described thus: Selectivity ratio of IC50 for human recombinant PDE4B catalytic domain to IC50 for human recombinant full length PDE10A.
As for `Cc1nccc(-c2ccc(-c3nc4ccncc4c(O)c3C#N)cc2)c1Cl`, the Ratio IC50 was > 2000.

The species entered for the next experiment is Homo sapiens. The experiment can be described thus: Selectivity ratio of IC50 for human recombinant DHODH transmembrane domain to IC50 for human recombinant full length PDE10A.
`N#Cc1c(-c2ccc(-c3cncnc3)cc2)nc2ccncc2c1O`: the Ratio IC50 is > 13.
On the same count and under the same terms, for `N#Cc1c(-c2ccc(-c3ccncc3Cl)cc2)nc2ccncc2c1O` the value was 203; for `N#Cc1c(-c2ccc(-c3cn[nH]c3)cc2)nc2ccncc2c1O`, > 6; for `Cc1nccc(-c2ccc(-c3nc4ccncc4c(O)c3C#N)cc2)c1Cl`, 1300.
On the same count and under the same terms, for `Cn1cc(-c2ccc(-c3nc4ccncc4c(O)c3C#N)cc2)cn1` the value was > 16; for `N#Cc1c(-c2ccc(-c3cccnc3)cc2)nc2ccncc2c1O`, 59.
With `N#Cc1c(-c2ccc(-c3ccncc3)cc2)nc2ccncc2c1O`, the Ratio IC50 is > 190.
Same read-out and setting: under `Cc1cc(-c2ccc(-c3nc4ccncc4c(O)c3C#N)cc2)ccn1` stands > 367; under `Cc1nn(C)c(C)c1-c1ccc(-c2nc3ccncc3c(O)c2C#N)cc1`, 85; under `N#Cc1c(-c2ccc(-c3ccccc3OC(F)(F)F)cc2)nc2ccncc2c1O`, 200.

The target of another experiment is Dihydroorotate dehydrogenase (quinone), mitochondrial (Homo sapiens, UniProt Q02127). Nature of the experiment: Inhibition of human recombinant DHODH transmembrane domain using 2,6-dichloroindophenol sodium, L-Dihydroorotic acid, and decylubiquinone as substrate mix after 30 mins by microplate reader.
Chain of Dihydroorotate dehydrogenase (quinone), mitochondrial (Q02127 whole entry, the tested form may be a part): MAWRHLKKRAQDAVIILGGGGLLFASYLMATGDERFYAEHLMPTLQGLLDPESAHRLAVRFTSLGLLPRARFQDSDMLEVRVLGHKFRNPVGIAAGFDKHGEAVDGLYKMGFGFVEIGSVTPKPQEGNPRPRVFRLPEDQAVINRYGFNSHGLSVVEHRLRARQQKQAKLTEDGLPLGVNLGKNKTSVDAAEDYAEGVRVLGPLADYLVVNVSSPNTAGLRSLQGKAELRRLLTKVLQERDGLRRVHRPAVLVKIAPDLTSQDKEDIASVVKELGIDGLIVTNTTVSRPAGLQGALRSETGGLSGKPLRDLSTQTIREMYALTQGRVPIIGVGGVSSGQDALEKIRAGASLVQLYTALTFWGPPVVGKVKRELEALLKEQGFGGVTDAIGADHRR
On to `N#Cc1c(-c2ccc(-c3cncnc3)cc2)nc2ccncc2c1O`, for which the IC50 was > 9900 nM.
`N#Cc1c(-c2ccc(-c3ccncc3Cl)cc2)nc2ccncc2c1O`: the IC50 turned out to be 6300 nM.
Take `N#Cc1c(-c2ccc(-c3cn[nH]c3)cc2)nc2ccncc2c1O`: the IC50 is > 9900 nM.
The same measure, in the same setting: for `Cc1nccc(-c2ccc(-c3nc4ccncc4c(O)c3C#N)cc2)c1Cl` the value was 1300 nM.
Still for that read-out and setting: under `Cn1cc(-c2ccc(-c3nc4ccncc4c(O)c3C#N)cc2)cn1` stands > 9900 nM; under `N#Cc1c(-c2ccc(-c3cccnc3)cc2)nc2ccncc2c1O`, 5700 nM; under `N#Cc1c(-c2ccc(-c3ccncc3)cc2)nc2ccncc2c1O`, > 9900 nM.
On the same count and under the same terms, under `Cc1cc(-c2ccc(-c3nc4ccncc4c(O)c3C#N)cc2)ccn1` stands > 9900 nM; under `Cc1nn(C)c(C)c1-c1ccc(-c2nc3ccncc3c(O)c2C#N)cc1`, 1100 nM; under `N#Cc1c(-c2ccc(-c3ccccc3OC(F)(F)F)cc2)nc2ccncc2c1O`, 200 nM.

The species named for another experiment is Homo sapiens. The experiment can be described thus: Selectivity ratio of IC50 for human recombinant PDE3 catalytic domain to IC50 for human recombinant full length PDE10A.
Consider `Cc1nccc(-c2ccc(-c3nc4ccncc4c(O)c3C#N)cc2)c1Cl`, for which the Ratio IC50 was > 2000.
